The source of these data is patent US20050009840A1 (SUGEN, INC., priority 2003, published 2005).

Where two headings read alike, the source gives them in different places.

The target in the test is T1, HGFR (Homo sapiens, UniProt P08581).
T1 construct: purchased Upstate 14-526
The test is described as follows: HGFR continuous-coupled spectrophotometric assay. In kind it is biochemical. The note with it: for inhibition at 1 pM / inhibition at 1 µM: read-out: % Inhibition (percent c-MET inhibition); for inhibition at 1 µM: Table 8, library procedure 43; for inhibition at 0.05 µM: at 50 nM, Table 5, library procedure 40, read-out: % inhibition (percent c-MET inhibition).

T1 sequence (P08581 974-1390 limits assumed): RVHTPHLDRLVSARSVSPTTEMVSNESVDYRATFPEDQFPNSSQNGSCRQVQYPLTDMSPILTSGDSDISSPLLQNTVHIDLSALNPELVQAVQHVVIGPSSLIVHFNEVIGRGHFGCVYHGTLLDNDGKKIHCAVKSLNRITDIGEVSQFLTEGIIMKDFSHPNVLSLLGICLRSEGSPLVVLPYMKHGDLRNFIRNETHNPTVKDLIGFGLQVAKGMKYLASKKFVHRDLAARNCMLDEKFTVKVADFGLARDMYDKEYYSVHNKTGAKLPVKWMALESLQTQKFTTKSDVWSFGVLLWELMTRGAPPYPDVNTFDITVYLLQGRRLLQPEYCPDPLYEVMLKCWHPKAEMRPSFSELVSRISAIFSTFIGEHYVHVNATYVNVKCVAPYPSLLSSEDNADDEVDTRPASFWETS

In the case of `COc1cc(OC)nc(COc2cc(-c3ccc(C(=O)N4CCC(N5CCCC5)CC4)cc3)cnc2N)n1`, the inhibition at 1 pM (Table 7, library procedure 42) was 20%.
Regarding `Nc1ncc(C(=O)NCCCN2CCCC2=O)cc1OCc1c(Cl)cccc1Cl` [Example L-217], the inhibition at 1 pM (Table 6, library procedure 41) is 34%.
Consider `CC1CN(C(=O)c2ccc(-c3cnc(N)c(OCc4cccc(Br)c4)c3)cc2)CC(C)N1` (stereo not drawn), for which the inhibition at 1 µM worked out at 21%.
Consider `COc1cc(COc2cc(-c3ccc(C(=O)N4CCC(N5CCCC5)CC4)cc3)cnc2N)cc(OC)c1`, for which the inhibition at 1 pM (Table 7, library procedure 42) stood at 17%.
For the compound `Nc1ncc(C(=O)N2CCCC(N3CCC(CO)CC3)CC2)cc1OCc1c(Cl)cccc1Cl` [Example L-341], the inhibition at 1 pM (Table 6, library procedure 41) was 20%.
As for `CC1CN(C(=O)c2ccc(-c3cnc(N)c(OCc4noc(-c5cccc(C(F)(F)F)c5)n4)c3)cc2)CC(C)N1` (stereo not drawn), the inhibition at 1 µM worked out at 30%.
In the case of `CN(CCC1CCC(=O)N1CC(F)(F)F)C(=O)c1cnc(N)c(OCc2c(Cl)cccc2Cl)c1` [Example L-321], the inhibition at 1 pM (Table 6, library procedure 41) came out at 25%.
Consider `CC(Oc1cc(-c2ccc(C(=O)N3CCC(N4CCCC4)CC3)cc2)cnc1N)c1ccccc1` (stereo not drawn), for which, under “Table 7, library procedure 42”, the inhibition at 1 pM is 10%.
As for `CN1CCN(C(=O)c2cnc(N)c(OCc3c(Cl)cccc3Cl)c2)CC1` [Example L-205], the inhibition at 1 pM (Table 6, library procedure 41) was 32%.
As to `Cc1cc(COc2cc(-c3ccc(C(=O)N4CC(C)NC(C)C4)cc3)cnc2N)ccc1F` (stereo not drawn), the inhibition at 1 µM amounted to 16%.
Same read-out and setting: under `CC1CN(C(=O)c2ccc(-c3cnc(N)c(OCc4cc(F)ccc4F)c3)cc2)CC(C)N1` (stereo not drawn) stands 25%.
For `CC(Oc1cc(-c2ccc(C(=O)NCC(N)=O)cc2)cnc1N)c1c(Cl)ccc(F)c1Cl` [Example L-21], the inhibition at 0.05 µM was 86%.
Regarding `Nc1ncc(C(=O)NCCN2CCN(Cc3ccccc3)CC2)cc1OCc1c(Cl)cccc1Cl` [Example L-263], the inhibition at 1 pM (Table 6, library procedure 41) came to 36%.
For `Nc1ncc(C(=O)N2CCCC(O)(COc3cccc(F)c3)C2)cc1OCc1c(Cl)cccc1Cl` [Example L-342], under “Table 6, library procedure 41”, the inhibition at 1 pM was determined as 36%.
As for `Nc1ncc(-c2ccc(C(=O)N3CCC(N4CCCC4)CC3)cc2)cc1OCc1nc(-c2ccccc2)n[nH]1`, the inhibition at 1 pM (Table 7, library procedure 42) was -2%.
In the case of `CC(Oc1cc(-c2ccc(C(=O)NCCN3CCCCC3)cc2)cnc1N)c1c(Cl)ccc(F)c1Cl` [Example L-6], the inhibition at 0.05 µM was found to be 69%.
With `Cc1ccn2cc(COc3cc(-c4ccc(C(=O)N5CCC(N6CCCC6)CC5)cc4)cnc3N)nc2c1`, the inhibition at 1 pM (Table 7, library procedure 42) turned out to be 16%.
In the case of `CC(Oc1cc(-c2ccc(C(=O)NCCc3c(Cl)cccc3Cl)cc2)cnc1N)c1c(Cl)ccc(F)c1Cl` [Example L-75], the inhibition at 0.05 µM came to 53%.
Consider `Nc1ncc(C(=O)NCc2cccc(OC(F)F)c2)cc1OCc1c(Cl)cccc1Cl` [Example L-249], for which the inhibition at 1 pM (Table 6, library procedure 41) is 32%.
Still for that read-out and setting: the same measure for `NC(=O)C1CCCN(C(=O)c2cnc(N)c(OCc3c(Cl)cccc3Cl)c2)C1` [Example L-188]: 39%.
Take `CCN1CC(NC(=O)c2ccc(-c3cnc(N)c(OC(C)c4c(Cl)ccc(F)c4Cl)c3)cc2)CN1CC` [Example L-65]: the inhibition at 0.05 µM came to 79%.
On to `Cc1cc(COc2cc(-c3ccc(C(=O)N4CCC(N5CCCC5)CC4)cc3)cnc2N)no1`, for which the inhibition at 1 pM (Table 7, library procedure 42) is 16%.
Still for that read-out and setting: under `Nc1ncc(-c2ccc(C(=O)N3CCC(N4CCCC4)CC3)cc2)cc1OCc1cc(-c2c(Cl)cccc2Cl)no1` stands 14%.
For `Nc1ncc(C(=O)NCCc2c[nH]c3ccc(O)cc23)cc1OCc1c(Cl)cccc1Cl` [Example L-223], the inhibition at 1 pM (Table 6, library procedure 41) amounted to 29%.
Still for that read-out and setting: the same measure for `Nc1ncc(C(=O)N2CCCC(C(=O)N3CCCC3)C2)cc1OCc1c(Cl)cccc1Cl` [Example L-286]: 47%; for `CC(=O)N(C)C1CCN(C(=O)c2cnc(N)c(OCc3c(Cl)cccc3Cl)c2)C1` [Example L-213]: 31%.
Take `CCCN1CCN(C(=O)c2ccc(-c3cnc(N)c(OC(C)c4c(Cl)ccc(F)c4Cl)c3)cc2)CC1` [Example L-129]: the inhibition at 0.05 µM was determined as 82%.

For orientation: inhibition means the relative decrease from the control value, in per cent.
